According to patent US11357766B2, “Compositions and methods for treating cancer” (Texas Tech University System, priority 2017, dated 2022):

Tests used:
[1] = tested on: subcutaneously implanted BxPC3 tumors; assay: Pancreatic tumor xenograft model; type: in vivo; conditions: 10 mg/kg oral gavage everyday
Protocol: Briefly, In FIG. 4A 1×10^6 BxPC3 cells in 1:1 mixture of PBS and matrigel were subcutaneously implanted in the right flank of 4-6 week old female athymic nude mice (n=5). […] The treatment was given till day 40. Values are plotted as mean±SEM. FIG. 4B orthotopic tumors were aseptically removed and the tumor size was compared between control and pimavanserin treated group. In FIG. 4C mice weight was recorded once in 10 days. The average weight of the mice is plotted against days. Values are plotted as mean±SEM.
Pancreatic tumor xenograft model. Female athymic nude mice (4-6 week old) were purchased from Harlan Laboratory (Livermore, Calif.). All the experiments were performed under the strict compliance and regulations approved from Institutional Animal Care and Use Committee (IACUC), Texas Tech University Health Sciences Center, Amarillo, Tex. 1×10^6 BxPC3 cells were implanted in right flank of the mice. […] Group I was assigned as control group, which received the vehicle only (PBS). Group II mice received 10 mg/kg Pimavanserin tartrate by oral gavage everyday. Treatment with Pimavanserin was started at day 13. Tumor growth was monitored by measuring the tumor volume twice a week until day 40 using a Vernier caliper as described by the present inventors (11). The study was terminated at day 40 due to tumor burden. The mice were euthanized and the tumors were aseptically removed. A part of tumor was snap frozen for western blotting and the other part was fixed in formalin for immunohistochemistry and TUNEL analysis. Mice weight was monitored once in ten days.
Pimavanserin suppresses the growth of subcutaneously implanted pancreatic tumors. To examine the in-vivo efficacy of pimavanserin and to establish the mechanism of tumor growth inhibition in pancreatic cancer, BxPC3 cells were implanted subcutaneously in female athymic nude mice. Once the tumor volume reached 70 mm^3 in size, experimental group of mice were treated with 10 mg/kg pimavanserin by oral gavage everyday. […]

PANC1 cells = assay: AnnexinV/FITC apoptosis assay; type: cell-based, human; conditions: 48 hours
Protocol: (§1) Briefly, the following cells were treated at 0.2×10^6, in FIG. 2A AsPC1 cells, FIG. 2B BxPC3 cells, and in FIG. 2C PANC1 cells, which were plated and treated with 5, 7.5 and 10 μM pimavanserin tartrate for 48 hours. Percent apoptotic cells was evaluated by AnnexinV/FITC apoptosis assay using Accuri C6 flow cytometer. Studies were repeated independently 3 times.
(§2) AnnexinV/FITC apoptosis assay. The effects of pimavanserin in inducing apoptosis were assessed by AnnexinV/FITC apoptosis assay. The assay was performed by FITC AnnexinV apoptosis detection kit (BD biosciences, San Jose, Calif., USA). Briefly, 0.2×10^6 pancreatic cancer cells were plated in each well of 6-well plate and incubate overnight for the cells to attach. The cells were then treated with varying concentrations of pimavanserin tartrate. After 48 hours, cells were trypsinized and suspended in PBS. Cells were washed and re-suspended in 150 μl of annexin binding buffer. The cells were then stained with 4 μl AnnexinV FITC and 4 μl propidium iodide for 20 minutes in dark. Post incubation, the volume was adjusted to 350 μl by adding annexin binding buffer. Samples were then analyzed by flow cytometer (Accuri C6, AnnArbor, Mich., USA) as previously described by the present inventors (7).
(§3) Pimavanserin induces apoptosis in pancreatic cancer cells. In order to determine the mechanism of anti-proliferative effects of pimavanserin tartrate, apoptosis induction by pimavanserin tartrate treatment was determined in AsPC1, BxPC3 and PANC1 pancreatic cancer cells by AnnexinV/FITC assay using flow cytometer. […] Treatment of AsPC1 and BxPC3 cells with 7.5 μM pimavanserin caused 2-fold increase in apoptotic cells (FIG. 2A, 2B), whereas in PANC1 cells, a 4-fold increase in apoptotic cells was observed (FIG. 2C). […] Induction of apoptosis by pimavanserin treatment in AsPC1, BxPC3 and PANC1 cells was confirmed by cleavage of caspase 3 (FIGS. 3A-3C).

AsPC1 cells = assay: AnnexinV/FITC apoptosis assay; type: cell-based, human; conditions: 7.5 μM, 48 hours
Protocol: as §1, §2, §3

BxPC3 cells = assay: AnnexinV/FITC apoptosis assay; type: cell-based, human; conditions: 48 hours
Protocol: as §1, §2, §3

[2] = tested on: orthotopically implanted PANC1-luc tumors; assay: Orthotopic pancreatic tumor model; type: in vivo
Protocol: 1×10^6 PANC-1 luc cells were surgically implanted on the pancreas of 4-6 week old female athymic nude mice (n=5). Mice were treated with 10 mg/kg pimavanserin tartrate at day 17 till day 69. In FIG. 5A tumor luminescence was measured about twice a week and plotted against days. Values are plotted as mean±SEM. In FIG. 5B orthotopic tumors were aseptically removed and the tumor size was compared between control and pimavanserin tartrate treated group. […] The average weight of the mice is plotted against days. Values are plotted as mean±SEM.
Orthotopic pancreatic tumor model. 4-6 week old female athymic nude mice were used for orthotopic injection. All the experiments were performed under the strict compliance and regulations approved from Institutional Animal Care and Use Committee (IACUC), Texas Tech University Health Sciences Center, Amarillo, Tex. Mice were anesthetized by using isoflorane and a minor incision was made in the left abdomen. Stably transfected luciferase-expressing PANC1 (PANC1-luc) cells were orthotopically-implanted in the pancreas. 1×10^6 exponentially growing PANC1-luc cells in 20 μl PBS suspension were injected into the sub-capsular region on the pancreas using a 30-gauge sterile needle. The peritoneum and skin incisions were closed sequentially with absorbable suture. Buprenorphine was administered as a pain killer to mice at every 8 hours for 2 days. The growth of orthotopically-implanted tumors was monitored by measuring the luminescence by IVIS imaging (Calliper Life Sciences). In order to determine the basal luminescence value, mice were imaged on the same day after injecting luciferin (3 mg/mouse, i.p.). Mice were randomly divided into two groups (control and treatment) on day 17 after orthotopic injection of PANC1 luc cells. Control group received vehicle only whereas treatment group received 10 mg/kg pimavanserin tartrate by oral gavage everyday. The study was terminated at day 69 by humanely euthanizing the mice using CO2 overdose. The mice was dissected and representative mouse from control and treatment groups were imaged for luminescence. The pancreas from control and treatment groups were aseptically excised out and snap frozen for western blot analysis, whereas few pancreas were fixed in formalin for immunohistochemical and TUNEL analysis. Mice weight was monitored once a week.
Pimavanserin inhibits the growth of orthotopic pancreatic tumors. In order to further validate the in-vivo efficacy of pimavanserin, PANC-1 luc cells were orthotopically implanted into the pancreas of athymic nude mice. After 17 days of tumor implantation, mice were treated with 10 mg/kg pimavanserin by oral gavage everyday. […] After terminating the experiment, tumors were removed and weighed. The average weight of pimavanserin treated tumors was 46% less when compared to the tumors excised form control group (FIGS. 5B & 5D). Furthermore, the inventors also compared the luminescence between both the groups in isolated pancreas.

CC(C)COc1ccc(CNC(=O)N(Cc2ccc(F)cc2)C2CCN(C)CC2)cc1 [pimavanserin, N-(4-fluorophenylmethyl)-N-(1-methylpiperidin-4-yl)-N′-(4-(2-methylpropyloxy)phenylmethyl)carbamide]
average tumor volume at the day of sacrifice ([1]; day 40, control group 873.395 mm3): 429.01 mm3 | overall weight of mice vs control (general signs of toxicity) ([1]; throughout the study): similar | suppression of growth of BxPC3 tumors ([1]; vs control): 50% | increase in apoptotic cells (PANC1 cells; 7.5 μM): 4 fold | increase in apoptotic cells (PANC1 cells; 10 μM): 5 fold | increase in apoptotic cells (AsPC1 cells): 2 fold | increase in apoptotic cells (BxPC3 cells; 7.5 μM): 2 fold | increase in apoptotic cells (BxPC3 cells; 10 μM): 5 fold | overall weight of the mice vs control (general signs of toxicity) ([2]; 10 mg/kg oral gavage everyday): did not reduce | suppression of orthotopic pancreatic tumor growth ([2]; 10 mg/kg oral gavage everyday): 75% | total flux (luminescence) at the end of the experiment ([2]; 10 mg/kg oral gavage everyday from day 17, day 69, control 1.45542×10^9 photons/second): 3.386×10^8 photons/sec | decrease of luminescence vs control group ([2]; 10 mg/kg oral gavage everyday, end of the experiment): 75% | average weight of tumors, less than control group ([2]; 10 mg/kg oral gavage everyday, excised tumors after terminating the experiment): 46%
